Measurements reported in US20250282799A1, “SUBSTITUTED PYRIDO[4,3-d]PYRIMIDINES AS KRAS MODULATORS” (Alterome Therapeutics, Inc., priority 2023, published 2025).

Test system: KRAS G12V dependent lung adenocarcinoma cell line, NCI-H441
Assay: Cellular pERK (Thr202/Tyr204) FRET/HTRF assay
Format: cell-based
Details: Homo sapiens, NCI-H441, cellular pERK HTRF, NCI-H441 (KRAS G12V) cells
Method in brief: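 Phospho-ERK1/2 (Thr202/Tyr204) quantified by two-antibody HTRF in lysed NCI-H441 cells. Cells seeded overnight, treated with test compounds for 1 hr at 37 °C against DMSO control, then lysed and detected at room temperature; IC50 obtained by curve fitting.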

Structure (SMILES): [2H]C([2H])(Oc1nc(N2CCOC[C@H]3[C@H](F)[C@H]32)c2cnc(-c3cc(N)cc4ccc(F)c(C#C)c34)c(C3CC3)c2n1)[C@@]12CCCN1C[C@H](F)C2 [Example 452, 4-(8-cyclopropyl-4-((1S,7S,8S)-8-fluoro-5-oxa-2-azabicyclo[5.1.0]octan-2-yl)-2-(((2R,7aS)-2-fluorotetrahydro-1H-pyrrolizin-7a(5H)-yl)methoxy-d2)pyrido[4,3-d]pyrimidin-7-yl)-5-ethynyl-6-fluoronaphthalen-2-amine]
- IC50: 500 to 10000 nM

Structure (SMILES): [2H]C([2H])(Oc1nc(N2CCOC[C@H]3[C@H](F)[C@H]32)c2cnc(-c3cc(N)cc4ccc(F)c(C#C)c34)c(C=C)c2n1)[C@@]12CCCN1C[C@H](F)C2 [Example 455, 5-ethynyl-6-fluoro-4-(4-((1S,7S,8S)-8-fluoro-5-oxa-2-azabicyclo[5.1.0]octan-2-yl)-2-(((2R,7aS)-2-fluorotetrahydro-1H-pyrrolizin-7a(5H)-yl)methoxy-d2)-8-vinylpyrido[4,3-d]pyrimidin-7-yl)naphthalen-2-amine]
- IC50: < 50 nM

Structure (SMILES): [2H]C([2H])(Oc1nc(N2CCOC[C@H]3[C@H](F)[C@H]32)c2cnc(-c3cc(N)cc4ccc(F)c(C#C)c34)c(CC)c2n1)[C@@]12CCCN1C[C@H](F)C2 [Example 456, 4-(8-Ethyl-4-((1S,7S,8S)-8-fluoro-5-oxa-2-azabicyclo[5.1.0]octan-2-yl)-2-(((2R,7aS)-2-fluorotetrahydro-1H-pyrrolizin-7a(5H)-yl)methoxy-d2)pyrido[4,3-d]pyrimidin-7-yl)-5-ethynyl-6-fluoronaphthalen-2-amine]
- IC50: < 50 nM

Structure (SMILES): [2H]C([2H])(Oc1nc(N2CCCC[C@H]3[C@H](F)[C@H]32)c2cnc(-c3cc(N)cc4ccc(F)c(C#C)c34)c(C)c2n1)[C@@]12CCCN1CC(=C)C2 [Example 457, 5-Ethynyl-6-fluoro-4-(4-((1S,7R,8S)-8-fluoro-2-azabicyclo[5.1.0]octan-2-yl)-8-methyl-2-(((S)-2-methylenetetrahydro-1H-pyrrolizin-7a(5H)-yl)methoxy-d2)pyrido[4,3-d]pyrimidin-7-yl)naphthalen-2-amine]
- IC50: < 50 nM

Structure (SMILES): [2H]C([2H])(Oc1nc(N2CCCC[C@H]3[C@H](F)[C@H]32)c2cnc(-c3cc(N)cc4ccc(F)c(C#C)c34)c(C)c2n1)[C@]12CC(=C)CN1CCC21CC1 [Example 458, 5-Ethynyl-6-fluoro-4-(4-((1S,7R,8S)-8-fluoro-2-azabicyclo[5.1.0]octan-2-yl)-8-methyl-2-(((R)-6′-methylenetetrahydrospiro[cyclopropane-1,1′-pyrrolizin]-7a′(5′H)-yl)methoxy-d2)pyrido[4,3-d]pyrimidin-7-yl)naphthalen-2-amine]
- IC50: < 50 nM

Structure (SMILES): C#Cc1c(F)ccc2cc(N)cc(-c3ncc4c(N5CCOC[C@H]6[C@H](Cl)[C@H]65)nc(OC[C@]56CC(=C)CN5CCC65CC5)nc4c3C)c12 [Example 459, 4-(4-((1S,7S,8S)-8-Chloro-5-oxa-2-azabicyclo[5.1.0]octan-2-yl)-8-methyl-2-(((R)-6′-methylenetetrahydrospiro[cyclopropane-1,1′-pyrrolizin]-7a′(5′H)-yl)methoxy)pyrido[4,3-d]pyrimidin-7-yl)-5-ethynyl-6-fluoronaphthalen-2-amine]
- IC50: < 50 nM

Structure (SMILES): [2H]C([2H])(Oc1nc(N2CCCC[C@H]3[C@H](F)[C@H]32)c2cnc(-c3cc(N)cc4ccc(F)c(C#C)c34)c(C)c2n1)[C@@]12CCCN1C[C@H](F)C2 [Example 460, 5-Ethynyl-6-fluoro-4-(4-((1S,7R,8S)-8-fluoro-2-azabicyclo[5.1.0]octan-2-yl)-2-(((2R,7aS)-2-fluorotetrahydro-1H-pyrrolizin-7a(5H)-yl)methoxy-d2)-8-methylpyrido[4,3-d]pyrimidin-7-yl)naphthalen-2-amine]
- IC50: < 50 nM
